pIC50: −log10 of the molar value.
Legend:
K562 [1] = assay: Cytotoxicity against human K562 cells assessed as cell viability at 3.3 uM measured after 24 hrs by CCK8 assay relative to control; type: functional; conditions: read-out: Activity
U-937 [2] = assay: Induction of apoptosis in human U-937 cells assessed as apoptotic ratio at 1 uM measured after 24 hrs by annexinV/FITC-propidium iodide staining based flow cytometry (reference value: 3.7 +/- 0.3 %); type: functional
U-937 [3] = assay: Cytotoxicity against human U-937 cells assessed as cell viability at 1.1 uM measured after 24 hrs by CCK8 assay relative to control; type: functional; conditions: read-out: Activity
U-937 [4] = assay: Induction of apoptosis in human U-937 cells assessed as early apoptotic cells at 0.5 uM measured after 24 hrs by annexinV/FITC-propidium iodide staining based flow cytometry (reference value: 1.28 to 1.68 %); type: functional
U-937 [5] = assay: Induction of apoptosis in human U-937 cells assessed as viable cells at 2 uM measured after 48 hrs by annexinV/FITC-propidium iodide staining based flow cytometry (reference value: 93.7 to 94.2 %); type: functional; conditions: read-out: Activity
K562 [6] = assay: Cytotoxicity against human K562 cells assessed as cell viability at 0.37 uM measured after 24 hrs by CCK8 assay relative to control; type: functional; conditions: read-out: Activity
K562 [7] = assay: Cytotoxicity against human K562 cells assessed as reduction in cell viability measured after 24 to 72 hrs by CCK8 assay; type: functional, cell-based; conditions: dose 0.37-3.3 µM, time 24-72 hrs
U-937 [8] = assay: Cytotoxicity against human U-937 cells assessed as cell viability at 3.3 uM measured after 24 hrs by CCK8 assay relative to control; type: functional; conditions: read-out: Activity
U-937 [9] = assay: Induction of apoptosis in human U-937 cells assessed as necrotic cells at 1 uM measured after 24 hrs by annexinV/FITC-propidium iodide staining based flow cytometry (reference value: 1.12 to 1.48 %); type: functional
U-937 [10] = assay: Cytotoxicity against human U-937 cells assessed as cell viability at 3.3 uM measured after 72 hrs by CCK8 assay relative to control; type: functional; conditions: read-out: Activity
MCF7 = assay: Cytotoxicity against human MCF7 cells assessed as reduction in cell viability measured after 72 hrs by CCK8 assay; type: functional, cell-based; conditions: Homo sapiens, MCF7, 72 h; read-out: IC50
U-937 [11] = assay: Induction of apoptosis in human U-937 cells assessed as early apoptotic cells at 1 uM measured after 24 hrs by annexinV/FITC-propidium iodide staining based flow cytometry (reference value: 1.28 to 1.68 %); type: functional
U-937 [12] = assay: Cytotoxicity against human U-937 cells assessed as reduction in cell viability measured after 24 to 72 hrs by CCK8 assay; type: functional, cell-based; conditions: dose 0.37-3.3 µM, time 24-72 hrs
U-937 [13] = assay: Cytotoxicity against human U-937 cells assessed as reduction in cell viability measured after 72 hrs by CCK8 assay; type: functional, cell-based; conditions: Homo sapiens, U-937, 72 h; read-out: IC50
U-937 [14] = assay: Cytotoxicity against human U-937 cells assessed as cell viability at 0.37 uM measured after 24 hrs by CCK8 assay relative to control; type: functional; conditions: read-out: Activity
U-937 [15] = assay: Induction of apoptosis in human U-937 cells assessed as apoptotic ratio at 1 uM measured after 48 hrs by annexinV/FITC-propidium iodide staining based flow cytometry (reference value: 5.2 +/- 0.2 %); type: functional
U-937 [16] = assay: Induction of apoptosis in human U-937 cells assessed as necrotic cells at 2 uM measured after 48 hrs by annexinV/FITC-propidium iodide staining based flow cytometry (reference value: 0.794 to 0.955 %); type: functional
K562 [17] = assay: Cytotoxicity against human K562 cells assessed as cell viability at 0.37 uM measured after 48 hrs by CCK8 assay relative to control; type: functional; conditions: read-out: Activity
U-937 [18] = assay: Cytotoxicity against human U-937 cells assessed as cell viability at 3.3 uM measured after 48 hrs by CCK8 assay relative to control; type: functional; conditions: read-out: Activity
HT-29 = assay: Cytotoxicity against human HT-29 cells assessed as reduction in cell viability measured after 72 hrs by CCK8 assay; type: functional, cell-based; conditions: Homo sapiens, HT-29, 72 h; read-out: IC50
U-937 [19] = assay: Induction of apoptosis in human U-937 cells assessed as apoptotic ratio at 0.5 uM measured after 48 hrs by annexinV/FITC-propidium iodide staining based flow cytometry (reference value: 5.2 +/- 0.2 %); type: functional
U-937 [20] = assay: Induction of apoptosis in human U-937 cells assessed as late apoptotic cells at 0.5 uM measured after 24 hrs by annexinV/FITC-propidium iodide staining based flow cytometry (reference value: 2.18 to 2.22 %); type: functional
K562 [21] = assay: Cytotoxicity against human K562 cells assessed as cell viability at 3.3 uM measured after 48 hrs by CCK8 assay relative to control; type: functional; conditions: read-out: Activity
U-937 [22] = assay: Induction of apoptosis in human U-937 cells assessed as viable cells at 1 uM measured after 48 hrs by annexinV/FITC-propidium iodide staining based flow cytometry (reference value: 93.7 to 94.2 %); type: functional; conditions: read-out: Activity

C=CCn1c(=O)/c(=C/CCCC)[nH]c(=O)/c1=C/c1ccc(OC)cc1
viability at 3.3 µM (K562 [1]): 31% | Activity (U-937 [2]): 16% | viability at 1.1 µM (U-937 [3]): 17.4% | Activity (U-937 [4]): 4.09% | viability at 2 µM (U-937 [5]): 52.7% | viability at 0.37 µM (K562 [6]): 87.8% | Activity (K562 [7]): Dose-dependent effect | viability at 3.3 µM (U-937 [8]): 1.6% | Activity (U-937 [9]): 1.13% | viability at 3.3 µM (U-937 [10]): 0% | pIC50 (MCF7): 5.72 | Activity (U-937 [11]): 7.63% | Activity (U-937 [12]): Dose-dependent effect | pIC50 (U-937 [13]): 6.44 | viability at 0.37 µM (U-937 [14]): 70.5% | Activity (U-937 [15]): 25.8% | Activity (U-937 [16]): 1.26% | viability at 0.37 µM (K562 [17]): 90.9% | viability at 3.3 µM (U-937 [18]): 0% | pIC50 (HT-29): 5.92 | Activity (U-937 [19]): 16.7% | Activity (U-937 [20]): 6.11% | viability at 3.3 µM (K562 [21]): 8.6% | viability at 1 µM (U-937 [22]): 73.1%

Source: ChEMBL document CHEMBL4715742, “Design, synthesis and cytotoxic activities of novel 2,5-diketopiperazine derivatives” (Eur J Med Chem, 2016)
